# US11040031B2, “Pyrazole derivatives as MALT1 inhibitors” (Janssen Pharmaceutica NV, priority 2018, dated 2021)
# Like-named read-outs stand apart in the source and are kept apart here.
# Tests used:
# [1] = test system: Secretion of IL10 by TMD8 ABC-DLBCL cells; experiment: Human IL10 Mesoscale assay (TMD-8); type: cell-based; conditions: read-out: Human IL10 Mesoscale assay (TMD-8)
# Experimental: (§1) NFKB signaling regulates the secretion of multiple cytokines, including IL6 and IL10. Secretion of the cytokines IL6 and IL10 by TMD8 or OCI-LY3 ABC-DLBCL cells was measured using a mesoscale assay.
# (§2) Cell passage number should not exceed 30. Cells should be kept between 0.5-2.5 million cells per mL during culturing and cells should be supplemented every 2-3 days with fresh 50 µM beta-mercaptoenthanol. No beta-mercaptoethanol was used during the mesoscale assay.
# (§3) DMSO control wells were used to determine the maximum signal (High Control (HC)). […] Compounds and cells were incubated for 24 h at 37° C. and 5% CO2 (assay volume is 150 μL). After 24 h of incubation 50 μL of the supernatant was transferred to a MSD plate (V-Plex Proinflammation Panel 1 (human) kit, Mesoscale (MSD)) and incubated for 2 h with vigorous shaking (600 rpm) at room temperature. Following incubation, plates were washed 3× with PBS+0.05% Tween-20 and 25 μL detection antibody solution (IL6 & IL10 antibodies in diluent 3 (MSD)) was added per well followed by 2 h of incubation with vigorous shaking (600 rpm) at room temperature. After 3× washes with PBS+0.05% Tween-20, plates were incubated with 150 μL 2× Read Buffer T and read on SECTOR imager.
# [2] = molecular target: T1, full-length MALT1 protein (Strep-MALT1(1-824)-His) (Homo sapiens, UniProt Q9UDY8); experiment: biochemical;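 note: fluorogenic LRSR-AMC substrate cleavage by MALT1, 50 min compound preincubation then 4 h reaction at RT, 11-point dilution from 30 µM, scaled between enzyme-free and untreated enzyme controls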
# T1 sequence (Q9UDY8 1-824): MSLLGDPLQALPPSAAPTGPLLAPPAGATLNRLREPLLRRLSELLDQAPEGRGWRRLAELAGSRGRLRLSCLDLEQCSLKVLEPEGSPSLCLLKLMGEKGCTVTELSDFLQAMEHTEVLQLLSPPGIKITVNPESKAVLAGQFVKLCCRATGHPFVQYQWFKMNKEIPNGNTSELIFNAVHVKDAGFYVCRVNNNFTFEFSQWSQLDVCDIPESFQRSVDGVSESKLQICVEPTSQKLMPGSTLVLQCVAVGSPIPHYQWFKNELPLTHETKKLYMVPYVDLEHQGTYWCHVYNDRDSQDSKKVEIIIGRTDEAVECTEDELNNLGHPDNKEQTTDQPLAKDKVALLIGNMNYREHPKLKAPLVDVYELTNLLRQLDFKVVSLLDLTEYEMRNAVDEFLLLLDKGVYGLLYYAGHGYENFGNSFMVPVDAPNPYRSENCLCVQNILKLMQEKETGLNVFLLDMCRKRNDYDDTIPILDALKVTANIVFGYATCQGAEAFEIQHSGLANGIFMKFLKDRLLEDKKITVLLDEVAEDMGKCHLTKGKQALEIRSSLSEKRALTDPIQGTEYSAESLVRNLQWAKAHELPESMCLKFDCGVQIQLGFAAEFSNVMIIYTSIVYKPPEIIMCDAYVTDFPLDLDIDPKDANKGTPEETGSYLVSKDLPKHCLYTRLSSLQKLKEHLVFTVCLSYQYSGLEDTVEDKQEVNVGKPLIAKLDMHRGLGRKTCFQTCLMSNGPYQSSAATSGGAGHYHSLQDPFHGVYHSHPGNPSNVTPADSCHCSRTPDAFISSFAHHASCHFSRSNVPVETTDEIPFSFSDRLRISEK
# [3] = test system: OCI-Ly3 ABC-DLBCL cell line; experiment: 4-day proliferation assay OCI-Ly3; type: cell-based; conditions: Homo sapiens, read-out: Anti-proliferation: OCI-LY-3 IC50
# Experimental: To assess anti-proliferative effects, MALT1 inhibitor test compounds were tested in 4-day proliferation assays using three different DLBCL cell lines.
# Cells should be kept between 0.5-2.5 million cells per mL during culturing and cells should be supplemented every 2-3 days with fresh 50 μM beta-mercaptoenthanol. No beta-mercaptoethanol is used during the proliferation assay. OCI-Ly7 cells were propagated in IMDM (ThermoFisher) supplemented with 10% fetal bovine serum (HyClone), 2 mM L-glutamine (Sigma Aldrich) and 50 μg/mL Gentamycin. Cell passage numbers should not exceed 30.
# 10,000 TMD8, 10,000 OCI-Ly3 or 2,000 OCI-Ly7 cells were seeded in 100 μL media per well and incubated for 4 days at 37° C. and 5% CO2. Cell plating numbers were chosen based on growth curves to ensure linear cell growth. After 4 days of incubation 50 μl CellTiterGLO reagent (Promega) were added to each well and luminescence was measured on the Envision after 10 min of incubation at room temperature.
# [4] = test system: Secretion of IL6 by OCI-LY3 ABC-DLBCL cells; experiment: Human IL6 Mesoscale assay (OCI-LY3); type: cell-based; conditions: read-out: Human IL6 Mesoscale assay (OCI-LY3)
# How it was run: (§4)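 TMD8 or OCI-LY3 ABC-DLBCL cells incubated with compound 24 h at 37° C without beta-mercaptoethanol. Secreted IL6 and IL10 in supernatant quantified by MSD electrochemiluminescence immunoassay; DMSO wells define maximum signal.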
# [5] = test system: Secretion of IL10 by OCI-LY3 ABC-DLBCL cells; experiment: Human IL10 Mesoscale assay (OCI-LY3); type: cell-based; conditions: read-out: Human IL10 Mesoscale assay (OCI-LY3)
# How it was run: as §4
# [6] = test system: Secretion of IL6 by TMD8 ABC-DLBCL cells; experiment: Human IL6 Mesoscale assay (TMD-8); type: cell-based; conditions: TMD8 cells, 24 h incubation, supernatant, MSD V-Plex, read-out: Human IL6 Mesoscale assay (TMD-8)
# Experimental: as §1, §2, §3
# [7] = TMD8 cells, 24 h incubation, supernatant, MSD V-Plex
# [8] = 96 h, 10,000 OCI-Ly3 cells per well, 4 days, CellTiterGLO
# [9] = OCI-LY3 cells, 24 h incubation, supernatant, MSD V-Plex
"IC50 [1, 7] [µM]",IC50 [2] [µM],"IC50 [3, 8] [µM]","IC50 ([1]; TMD8, 24 h) [µM]","IC50 ([3]; OCI-Ly3, 96 h) [µM]","IC50 [4, 9] [µM]","IC50 [5, 9] [µM]","IC50 ([4]; OCI-Ly3, 24 h) [µM]","IC50 ([5]; OCI-Ly3, 24 h) [µM]",IC50 [6] [µM],Compound
0.832,0.282,2.46,,,,,,,,"Cc1cccnc1-n1ncc(C(=O)Nc2cnc(-n3nccn3)c(Cl)c2)c1C(F)(F)F [Cpd 3, N-(5-Chloro-6-(2H-1,2,3-triazol-2-yl)pyridin-3-yl)-1-(3-methylpyridin-2-yl)-5-(trifluoromethyl)-1H-pyrazole-4-carboxamide]"
0.933,0.282,1.05,,,,,,,,"O=C(Nc1cnc(-n2nccn2)c(Cl)c1)c1cnn(-c2ccncc2)c1C(F)(F)F [Cpd 4, N-(5-Chloro-6-(2H-1,2,3-triazol-2-yl)pyridin-3-yl)-1-(pyridin-4-yl)-5-(trifluoromethyl)-1H-pyrazole-4-carboxamide]"
,0.151,,0.115,6.46,,,,,,"O=C(Nc1cnc(-n2nccn2)c(Cl)c1)c1cnn(-c2ccc(F)cc2)c1C(F)(F)F [Cpd 18, N-(5-chloro-6-(2H-1,2,3-triazol-2-yl)pyridin-3-yl)-1-(4-fluorophenyl)-5-(trifluoromethyl)-1H-pyrazole-4-carboxamide]"
0.117,0.132,7.94,,,,,,,,"N#Cc1ccc(-n2ncc(C(=O)Nc3cnc(-n4nccn4)c(Cl)c3)c2C(F)(F)F)cc1 [Cpd 19, N-(5-chloro-6-(2H-1,2,3-triazol-2-yl)pyridin-3-yl)-1-(4-cyanophenyl)-5-(trifluoromethyl)-1H-pyrazole-4-carboxamide]"
,0.562,,1,12.6,,,,,,"O=C(Nc1cnc(-n2nccn2)c(Cl)c1)c1cnn(-c2cccc(F)c2)c1C(F)(F)F [Cpd 20, N-(5-chloro-6-(2H-1,2,3-triazol-2-yl)pyridin-3-yl)-1-(3-fluorophenyl)-5-(trifluoromethyl)-1H-pyrazole-4-carboxamide]"
,0.045,0.912,,,0.38,0.427,,,,"Nc1nc(-n2ncc(C(=O)Nc3cnc(-n4nccn4)c(Cl)c3)c2C(F)(F)F)ccc1F [Cpd 62, 1-(6-amino-5-fluoropyridin-2-yl)-N-(5-chloro-6-(2H-1,2,3-triazol-2-yl)pyridin-3-yl)-5-(trifluoromethyl)-1H-pyrazole-4-carboxamide]"
,0.024,2.51,,,0.069,0.049,,,,"N#Cc1cc(NC(=O)c2cnn(-c3ccc(F)c(N)n3)c2C(F)(F)F)cnc1-n1nccn1 [Cpd 63, 1-(6-amino-5-fluoropyridin-2-yl)-N-(5-cyano-6-(2H-1,2,3-triazol-2-yl)pyridin-3-yl)-5-(trifluoromethyl)-1H-pyrazole-4-carboxamide]"
,0.162,1.26,,,0.138,0.138,,,,"COc1cc(F)ccc1-n1ncc(C(=O)Nc2cnc(-n3nccn3)c(Cl)c2)c1C(F)(F)F [Cpd 81, N-(5-chloro-6-(2H-1,2,3-triazol-2-yl)pyridin-3-yl)-1-(4-fluoro-2-methoxyphenyl)-5-(trifluoromethyl)-1H-pyrazole-4-carboxamide]"
,0.263,0.437,,,0.191,0.166,,,,"N#Cc1cc(NC(=O)c2cnn(-c3c(F)cccc3Cl)c2C(F)(F)F)cnc1-n1nccn1 [Cpd 98, 1-(2-chloro-6-fluorophenyl)-N-(5-cyano-6-(2H-1,2,3-triazol-2-yl)pyridin-3-yl)-5-(trifluoromethyl)-1H-pyrazole-4-carboxamide]"
,0.17,,,0.324,,,0.148,0.174,,"N#Cc1cc(NC(=O)c2cnn(-c3c(F)cc(F)cc3Cl)c2C(F)(F)F)cnc1-n1nccn1 [Cpd 99, 1-(2-chloro-4,6-difluorophenyl)-N-(5-cyano-6-(2H-1,2,3-triazol-2-yl)pyridin-3-yl)-5-(trifluoromethyl)-1H-pyrazole-4-carboxamide]"
,0.17,0.269,,,0.129,0.093,,,,"N#Cc1cc(NC(=O)c2cnn(-c3ccccc3C3CC3)c2C(F)(F)F)cnc1-n1nccn1 [Cpd 100, N-(5-cyano-6-(2H-1,2,3-triazol-2-yl)pyridin-3-yl)-1-(2-cyclopropylphenyl)-5-(trifluoromethyl)-1H-pyrazole-4-carboxamide]"
,0.151,0.479,,,0.166,0.12,,,,"Cc1cccc(F)c1-n1ncc(C(=O)Nc2cnc(-n3nccn3)c(C#N)c2)c1C(F)(F)F [Cpd 101, N-(5-cyano-6-(2H-1,2,3-triazol-2-yl)pyridin-3-yl)-1-(2-fluoro-6-methylphenyl)-5-(trifluoromethyl)-1H-pyrazole-4-carboxamide]"
,0.148,,,0.275,,,0.129,0.141,,"Cc1ccc(F)cc1-n1ncc(C(=O)Nc2cnc(-n3nccn3)c(C#N)c2)c1C(F)(F)F [Cpd 103, N-(5-cyano-6-(2H-1,2,3-triazol-2-yl)pyridin-3-yl)-1-(5-fluoro-2-methylphenyl)-5-(trifluoromethyl)-1H-pyrazole-4-carboxamide]"
,0.112,1.82,,,0.071,0.063,,,,"N#Cc1cc(NC(=O)c2cnn(-c3ccc(F)cc3F)c2C(F)(F)F)cnc1-n1nccn1 [Cpd 111, N-(5-cyano-6-(2H-1,2,3-triazol-2-yl)pyridin-3-yl)-1-(2,4-difluorophenyl)-5-(trifluoromethyl)-1H-pyrazole-4-carboxamide]"
2.24,0.229,,,,,,,,1.02,"CN1CCc2c1cccc2-n1ncc(C(=O)Nc2cnc(-n3nccn3)c(C#N)c2)c1C(F)(F)F [Cpd 128, N-(5-cyano-6-(2H-1,2,3-triazol-2-yl)pyridin-3-yl)-1-(1-methylindolin-4-yl)-5-(trifluoromethyl)-1H-pyrazole-4-carboxamide]"
,0.288,0.49,,,0.646,0.457,,,,"Cc1nc(-n2ncc(C(=O)Nc3cnc(-n4nccn4)c(C#N)c3)c2C(F)(F)F)ccc1F [Cpd 160, N-(5-cyano-6-(2H-1,2,3-triazol-2-yl)pyridin-3-yl)-1-(5-fluoro-6-methylpyridin-2-yl)-5-(trifluoromethyl)-1H-pyrazole-4-carboxamide]"
